Measured values as given in article PMC12040169 (PLOS Biology, 2025).

How the values were obtained:
in vitro = conditions: human, hela cells, % viability
HeLa = conditions: bulk resorufin, single well, 28.5 h, 10 µM, Bulk resorufin fluorescence

## C=CCNC(=O)Cn1c([C@@H]2CCCO2)cc2cccnc21 [CBK282873]
In vitro
  viability at 28.5 h, 10 µM: 98.2%
HeLa
  % viability: 110%

## Cc1onc(-c2ccccc2)c1C(=O)NCCNC(=O)c1c(-c2ccccc2)noc1C [CBK085092]
In vitro
  viability at 28.5 h, 10 µM: 106%
HeLa
  % viability: 108%

## NC(=O)CSc1nnc(-c2ccc(Cl)cc2)o1 [CBK068597]
In vitro
  viability at 28.5 h, 10 µM: 105%
HeLa
  % viability: 89.3%

## Cc1cc(CNS(=O)(=O)c2sc3ccc(Cl)cc3c2C)no1 [CBK062277]
In vitro
  viability at 28.5 h, 10 µM: 109%
HeLa
  % viability: 92.3%

## CCCCn1nc(C)c(-c2cc(C(=O)O)[nH]n2)c1C [CBK287047]
In vitro
  viability at 28.5 h, 10 µM: 95%
HeLa
  % viability: 84.5%

## O=C(NCCCN1CCCCC1)/C(=N\O)c1ccccc1 [CBK288524]
In vitro
  viability at 28.5 h, 10 µM: 97.7%
HeLa
  % viability: 85.9%

## O=S(=O)(Nc1ncc(Br)c2cccnc12)c1ccc(-c2ccccc2)cc1 [CBK073885]
In vitro
  viability at 28.5 h, 10 µM: 98.8%
HeLa
  % viability: 110%

## CC1CCc2c(sc3ncnc(SCC(=O)N4CCOCC4)c23)C1 (stereo not drawn) [CBK266192]
In vitro
  viability at 28.5 h, 10 µM: 105%
HeLa
  % viability: 111%

## C[C@@H](Cn1nnc2ccccc21)NC(=O)C1CC1 [CBK284312]
In vitro
  viability at 28.5 h, 10 µM: 88.5%
HeLa
  % viability: 81.5%

## COC(=O)c1ccc(CN2CC3CCCN3C[C@@H]2C)cc1 (stereo partly drawn) [CBK285403]
In vitro
  viability at 28.5 h, 10 µM: 111%
HeLa
  % viability: 103%

## CC[C@H](Cn1ncc2ccccc2c1=O)NC(=O)Cc1ccsc1 [CBK284306]
In vitro
  viability at 28.5 h, 10 µM: 98.4%
HeLa
  % viability: 88.7%

## O=C(C1CCC1)N1CCC[C@H]1Cn1nc(-c2cccs2)ccc1=O [CBK284251]
In vitro
  viability at 28.5 h, 10 µM: 80.9%
HeLa
  % viability: 78.8%

## CCCC(=O)Nc1cc2ccccc2c(N2CCNCC2)n1 [CBK024608T]
In vitro
  viability at 28.5 h, 10 µM: 102%
HeLa
  % viability: 104%

## O=C(O)c1ccc(S(=O)(=O)Nc2ccc(O)c(-c3c(O)ccc4ccccc34)c2)cc1 [CBK267667]
In vitro
  viability at 28.5 h, 10 µM: 108%
HeLa
  % viability: 94.7%

## CS(=O)(=O)N1CC=C[C@H]1C(=O)NCc1ccc(F)cc1 [CBK284270]
In vitro
  viability at 28.5 h, 10 µM: 97.6%
HeLa
  % viability: 87.2%

## CCc1cc(CN(CC)CC)n[nH]1 [CBK018654]
In vitro
  viability at 28.5 h, 10 µM: 114%
HeLa
  % viability: 94.5%

## O=C(O)C1CCN(C2CC(=O)N(CCc3ccccc3)C2=O)CC1 (stereo not drawn) [CBK269100]
In vitro
  viability at 28.5 h, 10 µM: 97.1%
HeLa
  % viability: 97.3%

## COc1ccc2[nH]cc(CC(=O)N3CCC(C#N)(c4ccccc4)CC3)c2c1 [CBK091403]
In vitro; bulk resorufin, single well
  viability at 28.5 h, 10 µM: 96.6%
HeLa
  % viability: 105%
